The values that follow are results of earlier work, collected in patent publication EP4789665A1, “TREATMENT OF HIS HYPORESPONDERS” (NewAmsterdam Pharma B.V., priority 2021, dated 2023).

SMILES strings stand for the structures.

In data set [1] the target is T1, CETP (Homo sapiens, UniProt P11597).
T1 construct: endogenous in cells; host or cells: trial patients (in vivo, circulating plasma CETP)
T1 sequence (P11597 18-493): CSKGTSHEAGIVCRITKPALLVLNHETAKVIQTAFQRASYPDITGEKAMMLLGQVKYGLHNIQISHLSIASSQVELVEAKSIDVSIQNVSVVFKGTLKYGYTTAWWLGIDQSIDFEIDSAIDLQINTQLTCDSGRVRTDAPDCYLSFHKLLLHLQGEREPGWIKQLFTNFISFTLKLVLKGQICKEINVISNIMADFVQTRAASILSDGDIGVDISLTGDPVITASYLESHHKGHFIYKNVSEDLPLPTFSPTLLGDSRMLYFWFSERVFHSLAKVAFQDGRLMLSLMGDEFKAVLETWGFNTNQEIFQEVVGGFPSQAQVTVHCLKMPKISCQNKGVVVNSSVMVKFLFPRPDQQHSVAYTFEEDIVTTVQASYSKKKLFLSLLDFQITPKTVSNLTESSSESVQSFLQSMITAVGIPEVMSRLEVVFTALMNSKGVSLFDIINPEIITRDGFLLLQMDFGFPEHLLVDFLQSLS
As to conditions: in vivo; cited from earlier work.

For data set [2], the target named is T2, HMG CoA reductase (Homo sapiens, UniProt P04035).
T2 construct: host or cells: patients of the JUPITER study (in vivo)
T2 sequence (P04035 1-888): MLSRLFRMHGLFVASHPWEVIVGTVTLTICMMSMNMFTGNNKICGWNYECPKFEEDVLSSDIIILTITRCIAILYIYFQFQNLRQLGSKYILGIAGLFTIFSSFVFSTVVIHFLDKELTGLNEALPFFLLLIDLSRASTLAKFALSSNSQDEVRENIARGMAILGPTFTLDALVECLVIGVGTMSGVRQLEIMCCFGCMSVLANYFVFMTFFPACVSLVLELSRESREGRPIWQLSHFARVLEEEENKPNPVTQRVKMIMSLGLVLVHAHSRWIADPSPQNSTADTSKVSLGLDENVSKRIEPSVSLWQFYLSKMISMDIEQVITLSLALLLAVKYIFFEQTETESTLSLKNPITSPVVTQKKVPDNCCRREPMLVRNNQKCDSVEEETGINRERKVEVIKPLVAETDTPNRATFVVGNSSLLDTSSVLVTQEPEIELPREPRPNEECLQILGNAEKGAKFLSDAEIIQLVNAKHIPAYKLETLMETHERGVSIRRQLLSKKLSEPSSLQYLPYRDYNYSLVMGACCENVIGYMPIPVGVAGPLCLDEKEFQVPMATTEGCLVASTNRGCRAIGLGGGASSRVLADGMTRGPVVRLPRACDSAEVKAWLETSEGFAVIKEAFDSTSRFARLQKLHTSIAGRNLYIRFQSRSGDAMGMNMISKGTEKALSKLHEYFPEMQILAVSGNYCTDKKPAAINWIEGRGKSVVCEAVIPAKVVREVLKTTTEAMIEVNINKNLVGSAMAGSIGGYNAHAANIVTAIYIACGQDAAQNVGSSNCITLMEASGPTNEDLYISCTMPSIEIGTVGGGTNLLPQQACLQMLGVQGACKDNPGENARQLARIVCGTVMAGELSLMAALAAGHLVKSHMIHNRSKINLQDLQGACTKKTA
To be noted: rosuvastatin 20 mg; JUPITER secondary analysis; cited from earlier work.

For data set [3], the target named is T1, CETP. As to conditions: in combination with atorvastatin; cited from earlier work.

Turning to `CCC(CC)CC1(C(=O)Nc2ccccc2SC(=O)C(C)C)CCCCC1` [dalcetrapib], in data set [1], the “effects on LDL-C concentrations” value is “minimal effects on LDL-C concentrations” and the “increased HDL-C by” value was 30-40%.
For the compound `CC(C)c1nc(N(C)S(C)(=O)=O)nc(-c2ccc(F)cc2)c1/C=C/[C@@H](O)C[C@@H](O)CC(=O)O` [rosuvastatin], in data set [2], the “median LDL-C lowering response” value is reported as 50%.
As for `CCOC(=O)N1c2ccc(C(F)(F)F)cc2[C@@H](N(Cc2cc(C(F)(F)F)cc(C(F)(F)F)c2)C(=O)OC)C[C@H]1CC` [torcetrapib], in data set [3], the “cardiovascular events and death” value was “unexpected increase in cardiovascular events and death”.
